Test results from BindingDB's records for PubMed 34838650 (University of Messina, 2022).

Legend:
[1] = Inhibition of chymotrypsin-like activity of human 20s immuno proteasome beta5i subunit assessed as substrate hydrolysis using Suc-Leu-Leu-Val-Tyr-AMC as flurogenic substrate at 0.004 mg/ml measured for 10 mins by fluorescence assay
[2] = molecular target: Proteasome subunit beta type-9 (PSMB9); test: Inhibition of 20S immuno proteosome beta1i subunit (unknown origin) assessed as substrate hydrolysis using Z-Leu-Leu-Glu-AMC as fluorogenic substrate at 100 uM
[3] = molecular target: Proteasome subunit beta type-10 (PSMB10); test: Inhibition of 20S immuno proteosome beta2i subunit (unknown origin) assessed as substrate hydrolysis using Boc-Leu-Arg-Arg-AMC as fluorogenic substrate at 100 uM
[4] = Inhibition of 20S constitutive proteosome beta1c subunit (unknown origin) assessed as substrate hydrolysis using Z-Leu-Leu-Glu-AMC as fluorogenic substrate at 100 uM
[5] = Inhibition of 20S constitutive proteosome beta2c subunit (unknown origin) assessed as substrate hydrolysis using Boc-Leu-Arg-Arg-AMC as fluorogenic substrate at 100 uM
[6] = molecular target: Proteasome subunit beta type-9 (PSMB9); test: Inhibition of human spleen 20S immuno proteosome beta1i subunit assessed as substrate hydrolysis using Ac-Pro-Ala-Leu-AMC as fluorogenic substrate by fluorescence based assay

Compound | Ki [1] [µM] | Ki [2] [µM] | Ki [3] [µM] | Ki [4] [µM] | Ki [5] [µM] | Ki [6] [µM]
COc1cc2ccn(C/C=C/C(=O)Nc3ccccc3)c(=O)c2cc1OC | – | 10 | 12 | 17 | 15 | –
COc1cc2ccn(C/C=C/C(=O)NCc3ccccc3)c(=O)c2cc1OC | – | 3 | – | 23 | 9 | –
COc1cc2ccn(C/C=C/C(=O)NCCc3ccccc3)c(=O)c2cc1OC | – | 14 | 4 | – | 10 | –
CCCCNC(=O)/C=C/Cn1ccc2cc(OC)c(OC)cc2c1=O | – | – | 42 | – | 10 | –

The next lines start with the values.

Ki [1] [µM] | Ki [2] [µM] | Ki [3] [µM] | Ki [4] [µM] | Ki [5] [µM] | Ki [6] [µM] | Compound
4.39 | – | – | – | – | – | CC(C)CCNC(=O)Cn1ccc2ccc(Br)cc2c1=O
– | 50 | 3 | – | 5 | – | COc1cc2ccn(C/C=C/C(=O)NCCCc3ccccc3)c(=O)c2cc1OC
– | 0.27 | 20 | – | 4 | – | COc1cc2ccn(C/C=C/C(=O)NCCC(C)C)c(=O)c2cc1OC
– | – | 42 | – | – | – | COc1cc2ccn(C/C=C/C(=O)NC3CCCCC3)c(=O)c2cc1OC
– | – | – | – | – | 0.021 | O=C(CCn1ccccc1=O)NCc1ccccc1
